From PubChem BioAssay (NCI)
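Cultured in 96-well plates, cells were exposed to test compound for 48 hours across five concentrations. GI50 is the concentration that inhibits growth by half. Definition used: TGI = concentration required for complete inhibition of growth.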

Legend:
Assay in all cases: NCI tumour cell line growth inhibition, 48 h
HOP-62 NSCLC = test system: HOP-62 NSCLC
CCRF-CEM leukemia = test system: CCRF-CEM leukemia
OVCAR-5 ovarian = test system: OVCAR-5 ovarian
SK-OV-3 ovarian = test system: SK-OV-3 ovarian
SNB-19 CNS = test system: SNB-19 CNS
TK-10 renal = test system: TK-10 renal
OVCAR-3 ovarian = test system: OVCAR-3 ovarian
PC-3 prostate = test system: PC-3 prostate
MDA-MB-435 = test system: MDA-MB-435
DU-145 prostate = test system: DU-145 prostate

Nc1nc(N)c(N=Nc2ccccc2)c(=O)[nH]1
TGI (HOP-62 NSCLC): > 100 µM
TGI (CCRF-CEM leukemia): > 100 µM
TGI (OVCAR-5 ovarian): > 100 µM
TGI (SK-OV-3 ovarian): > 100 µM
TGI (SNB-19 CNS): > 100 µM
TGI (TK-10 renal): > 100 µM
TGI (OVCAR-3 ovarian): > 100 µM

CC=C/C=C/[C@@H]1O[C@](O)([C@H](CC)C(=O)NC/C=C/C=C(\C)[C@@H](OC)[C@@H](C)[C@@H]2O[C@H](/C=C/C=C/C=C(\C)C(=O)c3c(O)cc[nH]c3=O)[C@H](O)[C@@H]2O)[C@H](O)[C@H](O)C1(C)C
TGI (PC-3 prostate): > 100 µM
TGI (HOP-62 NSCLC): > 100 µM
TGI (OVCAR-5 ovarian): > 100 µM
TGI (MDA-MB-435): > 100 µM
TGI (SK-OV-3 ovarian): > 100 µM
TGI (SNB-19 CNS): > 100 µM
TGI (TK-10 renal): > 100 µM
TGI (OVCAR-3 ovarian): > 100 µM

OCC1NC(CO)C(O)C1O (stereo not given)
TGI (PC-3 prostate): > 100 µM
TGI (HOP-62 NSCLC): > 100 µM
TGI (CCRF-CEM leukemia): > 100 µM
TGI (OVCAR-5 ovarian): > 100 µM
TGI (MDA-MB-435): > 100 µM
TGI (DU-145 prostate): > 100 µM
TGI (SK-OV-3 ovarian): > 100 µM
TGI (SNB-19 CNS): > 100 µM
TGI (TK-10 renal): > 100 µM
TGI (OVCAR-3 ovarian): > 100 µM

COc1ccc(/C=C/c2cc(O)cc(OC3OC(CO)C(O)C(O)C3O)c2)cc1O (stereo not given)
TGI (PC-3 prostate): > 100 µM
TGI (HOP-62 NSCLC): > 100 µM
TGI (CCRF-CEM leukemia): > 100 µM
TGI (OVCAR-5 ovarian): > 100 µM
TGI (MDA-MB-435): > 100 µM
TGI (DU-145 prostate): > 100 µM
TGI (SK-OV-3 ovarian): > 100 µM
TGI (SNB-19 CNS): > 100 µM
TGI (TK-10 renal): > 100 µM
TGI (OVCAR-3 ovarian): > 100 µM

CCOP(=O)(OCC)C(Cc1c[nH]c2ccccc12)C(=O)O (stereo not given)
TGI (PC-3 prostate): > 100 µM
TGI (HOP-62 NSCLC): > 100 µM
TGI (CCRF-CEM leukemia): > 100 µM
TGI (OVCAR-5 ovarian): > 100 µM
TGI (MDA-MB-435): > 100 µM
TGI (DU-145 prostate): > 100 µM
TGI (SK-OV-3 ovarian): > 100 µM
TGI (SNB-19 CNS): > 100 µM
TGI (TK-10 renal): > 100 µM
TGI (OVCAR-3 ovarian): > 100 µM

COc1ccc(CCn2ccc(C)n2)c(OC)c1
TGI (PC-3 prostate): > 100 µM
TGI (HOP-62 NSCLC): > 100 µM
TGI (CCRF-CEM leukemia): > 100 µM
TGI (OVCAR-5 ovarian): > 100 µM
TGI (MDA-MB-435): > 100 µM
TGI (DU-145 prostate): > 100 µM
TGI (SK-OV-3 ovarian): > 100 µM
TGI (SNB-19 CNS): > 100 µM
TGI (TK-10 renal): > 100 µM
TGI (OVCAR-3 ovarian): > 100 µM

O=C(Nc1ccc(C(F)(F)F)cc1[N+](=O)[O-])C(=O)Nn1c(=S)[nH]c2ccccc2c1=O
TGI (HOP-62 NSCLC): > 100 µM
TGI (CCRF-CEM leukemia): > 100 µM
TGI (OVCAR-5 ovarian): > 100 µM
TGI (SK-OV-3 ovarian): > 100 µM
TGI (SNB-19 CNS): > 100 µM
TGI (TK-10 renal): > 100 µM

COc1ncnc2c(Cl)c(C(O)c3ccccc3)c(Cl)cc12 (stereo not given)
TGI (PC-3 prostate): > 100 µM
TGI (HOP-62 NSCLC): 32.5 µM
TGI (OVCAR-5 ovarian): > 100 µM
TGI (MDA-MB-435): 21.3 µM
TGI (DU-145 prostate): > 100 µM
TGI (SK-OV-3 ovarian): 49 µM
TGI (SNB-19 CNS): 79.9 µM
TGI (TK-10 renal): 63.4 µM
TGI (OVCAR-3 ovarian): > 100 µM

CC(=O)OC/C=C\Cn1ncc(=O)[nH]c1=O
TGI (PC-3 prostate): 36 µM
TGI (HOP-62 NSCLC): 43.9 µM
TGI (CCRF-CEM leukemia): 50.4 µM
TGI (OVCAR-5 ovarian): 32.3 µM
TGI (MDA-MB-435): 39.3 µM
TGI (DU-145 prostate): 42.8 µM
TGI (SNB-19 CNS): > 100 µM
TGI (OVCAR-3 ovarian): 69.3 µM

Fc1ccc(C2CC(c3cccc(Nc4ccncc4)c3)=NN2c2ccccc2)cc1 (stereo not given)
GI50 (PC-3 prostate): 1.58 µM
TGI (PC-3 prostate): 3.18 µM
GI50 (CCRF-CEM leukemia): 3.22 µM
TGI (CCRF-CEM leukemia): 10.2 µM
GI50 (OVCAR-5 ovarian): 2.18 µM
TGI (OVCAR-5 ovarian): 5.27 µM
GI50 (MDA-MB-435): 1.63 µM
TGI (MDA-MB-435): 3.14 µM
GI50 (DU-145 prostate): 1.98 µM
TGI (DU-145 prostate): 3.91 µM
GI50 (SK-OV-3 ovarian): 5.7 µM
TGI (SK-OV-3 ovarian): 19.9 µM
GI50 (SNB-19 CNS): 1.61 µM
TGI (SNB-19 CNS): 3.04 µM
GI50 (TK-10 renal): 1.99 µM
TGI (TK-10 renal): 3.75 µM
GI50 (OVCAR-3 ovarian): 1.75 µM
TGI (OVCAR-3 ovarian): 3.24 µM

Nc1ccc(C2(c3ccc(N)cc3)C3CC4CC(C3)CC2C4)cc1
TGI (PC-3 prostate): 29.3 µM
TGI (HOP-62 NSCLC): 29.3 µM
TGI (CCRF-CEM leukemia): 25.3 µM
TGI (OVCAR-5 ovarian): 32.7 µM
TGI (MDA-MB-435): 31.5 µM
TGI (SK-OV-3 ovarian): 30 µM
TGI (SNB-19 CNS): 33.3 µM
TGI (TK-10 renal): 32.2 µM
TGI (OVCAR-3 ovarian): 25.1 µM
